According to patent publication US20080113994A1, “Annelated Quinoline Derivatives As Pesticide” (priority 2004, published 2008):

Columns and labels:
[1] = tested on: larvae of the army worm (Spodoptera frugiperda); experiment: Spodoptera frugiperda test (spray treatment); format: in vivo; conditions: 500 g/ha, sprayed maize leaf disks
Text: Spodoptera frugiperda Test (Spray Treatment)

[2] = tested on: larvae of the cabbage moth (Plutella xylostella); experiment: Plutella test; format: in vivo; conditions: for Kill rate in % after 7^d: 100 PPM, dipped cabbage leaves; for efficacy (in words): Plutella test
Text: Solvent: 7 parts by weight of dimethylformamide
Emulsifier: 1 part by weight of alkylaryl polyglycol ether

[3] = tested on: eggs of the cotton bollworm (Heliothis virescens); experiment: Heliothis virescens egg test (spray treatment); format: in vivo; conditions: 500 g/ha, sprayed soybean leaves, 100% = none of the larvae hatched
Text: Heliothis virescens Egg Test (Spray Treatment)

[4] = tested on: larvae of the mustard beetle (Phaedon cochleariae); experiment: Phaedon larvae test (spray treatment); conditions: sprayed Chinese cabbage leaf disks

SMILES | Kill rate in % after 7^d [1] | Kill rate in % after 7^d [3] | Kill rate in % after 7^d ([4]; 500 g/ha) | also measured
COc1ccc2c(c1)NC1=C(C(=O)OC1)C2c1cc(OC)c(OC)c(OC)c1 (stereo not shown) [Example 9] | 100% | – | – | Kill rate in % after 7^d [2]: 90%; efficacy (in words) [2]: high efficacy
COc1cc(OC)c(C2C3=C(COC3=O)Nc3cc4c(cc32)OCO4)cn1 (stereo not shown) [Example 150] | – | 100% | – | –
N#CCOc1cccc(C2C3=C(COC3=O)Nc3cc4c(cc32)OCO4)c1 (stereo not shown) [Example 136] | 100% | – | 83% | –
O=C1OCC2=C1C(c1cc(F)cc(F)c1)c1cc3c(cc1N2)OCO3 (stereo not shown) [Example 16] | 100% | 97% | – | –
CC1(C)CC(=O)C2=C(C1)Nc1cc3c(cc1C2c1cccc(Cl)c1)OCO3 (stereo not shown) [Example 31] | – | 83% | – | –
COc1cc(OC)cc(C2C3=C(CCC3=O)Nc3cc4c(cc32)OCO4)c1 (stereo not shown) [Example 56] | 100% | 80% | 100% | –
COc1cccc(C2C3=C(COC3=O)Nc3cc4c(cc32)OCO4)c1 (stereo not shown) [Example 1, 6,7-(methylenedioxy)-9-(3-methoxyphenyl)-4,9-dihydro-3H-furo[3,4-b]quinolin-1-one] | 100% | – | – | –
COc1c(Cl)cc(C2C3=C(COC3=O)Nc3cc4c(cc32)OCO4)cc1Cl (stereo not shown) [Example 128] | 83% | – | 100% | –
COc1cc(OC)cc(C2C3=C(COC3=O)Nc3cc(OC)cc(OC)c32)c1 (stereo not shown) [Example 100] | 100% | – | – | Kill rate in % after 7^d ([4]; 100 g/ha): 83%
COc1cc(C2C3=C(COC3=O)Nc3cc4c(cc32)OCO4)cc2c1OCO2 (stereo not shown) [Example 133] | 83% | 95% | 100% | –
COc1cc(OC)cc(C2C3=C(COC3=O)Nc3cc4c(cc32)OCCCO4)c1 (stereo not shown) [Example 75] | 100% | – | 100% | –
COc1ccc(C2C3=C(COC3=O)Nc3cc4c(cc32)OCO4)cn1 (stereo not shown) [Example 142] | 100% | – | 100% | –
O=C1OCC2=C1C(c1ccccc1)c1cc3c(cc1N2)OCO3 (stereo not shown) [Example 17] | 100% | – | – | –
O=C1OCC2=C1C(c1cc(Br)c3c(c1)OCO3)c1cc3c(cc1N2)OCO3 (stereo not shown) [Example 145] | 100% | – | 83% | –
O=C1OCC2=C1C(c1cncc(Br)c1)c1cc3c(cc1N2)OCO3 (stereo not shown) [Example 116] | 100% | – | – | –
COc1cc(OC)cc(C2C3=C(COC3=O)Nc3cc(OC)ccc32)c1 (stereo not shown) [Example 161] | 100% | 100% | 100% | –
CN1OC(C)(C)C2=C(C1=O)C(c1cccc(Cl)c1)c1cc3c(cc1N2)OCO3 (stereo not shown) [Example 36] | – | 80% | – | –
COc1cc(OC)cc(C2C3=C(COC3=O)Nc3cc(OC)c(OC)cc32)c1 (stereo not shown) [Example 73] | 83% | – | 83% | –
O=C1OCC2=C1C(c1cccc(OCc3ccc(Cl)cc3)c1)c1cc3c(cc1N2)OCO3 (stereo not shown) [Example 149] | – | 85% | – | –
O=C1OCC2=C1C(c1cc(Br)cc(Br)c1)c1cc3c(cc1N2)OCO3 (stereo not shown) [Example 123] | 100% | 95% | – | –
COc1cc(OC)cc(C2(C)C3=C(COC3=O)Nc3cc4c(cc32)OCO4)c1 (stereo not shown) [Example 107] | – | 90% | – | –
COc1cc(OC)cc(C2C3=C(COC3=O)Nc3cc(SC)ccc32)c1 (stereo not shown) [Example 84] | 100% | – | – | –
O=C1OCC2=C1C(c1ccc(F)c(Br)c1)c1cc3c(cc1N2)OCO3 (stereo not shown) [Example 129] | 100% | 100% | – | –
COc1cc(OC)cc(C2C3=C(Nc4cc5c(cc42)OCO5)C(C)OC3=O)c1 (stereo not shown) [Example 45] | 100% | 98% | 100% | –
O=C1OCC2=C1C(c1cccc(OC(F)(F)C(F)F)c1)c1cc3c(cc1N2)OCO3 (stereo not shown) [Example 157] | 100% | – | 100% | –
COc1cc(C2C3=C(COC3=O)Nc3cc4c(cc32)OCO4)cc(Br)c1OC (stereo not shown) [Example 114] | – | – | 83% | –
O=C1OCC2=C1C(c1cc(F)c(F)c(F)c1)c1cc3c(cc1N2)OCO3 (stereo not shown) [Example 153] | 100% | – | – | –

SMILES | Kill rate in % after 7^d [1] | Kill rate in % after 7^d [3] | Kill rate in % after 7^d ([4]; 500 g/ha) | also measured
O=C1OCC2=C1C(c1cccc(Br)c1)c1cc3c(cc1N2)OCO3 (stereo not shown) [Example 18] | – | 98% | 100% | –
COc1cc(C2C3=C(COC3=O)N(C)c3cc4c(cc32)OCO4)cc(OC)c1OC (stereo not shown) [Example 69] | – | – | 100% | –
COc1cc(OC)cc(C2C3=C(COC3=O)Nc3c2ccc(OC)c3OC)c1 (stereo not shown) [Example 90] | 100% | – | 100% | –
COc1ccc2c(c1)C(c1cc(OC)c(OC)c(OC)c1)C1=C(COC1=O)N2 (stereo not shown) [Example 8, 7-methoxy-9-(3,4,5-trimethoxyphenyl)-4,9-dihydro-3H-furo[3,4-b]quinolin-1-one] | – | – | 100% | –
CCOc1cc2c(cc1C)C(c1cc(OC)cc(OC)c1)C1=C(COC1=O)N2 (stereo not shown) [Example 99] | – | – | 83% | –
CCOc1cccc(C2C3=C(COC3=O)Nc3cc(OCC)ccc32)c1 (stereo not shown) [Example 103] | 100% | – | 100% | –
COc1cc(OC)cc(C2C3=C(COC3=O)Nc3cc(OC)c(C)cc32)c1 (stereo not shown) [Example 93] | 100% | – | 100% | –
O=C1OCC2=C1C(c1cccc(Cl)c1)c1cc3c(cc1N2)OCO3 (stereo not shown) [Example 6] | 100% | 98% | – | Kill rate in % after 7^d [2]: 100%; efficacy (in words) [2]: high efficacy
COc1cc(C2C3=C(COC3=O)Nc3cc4c(cc32)OCO4)ccc1Cl (stereo not shown) [Example 139] | 100% | – | 83% | –
O=C1OCC2=C1C(c1cccc(OCCO)c1)c1cc3c(cc1N2)OCO3 (stereo not shown) [Example 158] | 100% | – | – | –
O=C1OCC2=C1C(c1ccc(F)c(Cl)c1)c1cc3c(cc1N2)OCO3 (stereo not shown) [Example 140] | 100% | – | – | –
COc1cc(C2C3=C(COC3=O)Nc3cc4c(cc32)OCO4)ccc1F (stereo not shown) [Example 148] | 100% | – | – | –
COc1cc2c(c(C3C4=C(COC4=O)Nc4cc5c(cc43)OCO5)c1)OCO2 (stereo not shown) [Example 155] | – | – | 100% | –
CC1CC2=C(C(=O)O1)C(c1cccc(Cl)c1)c1cc3c(cc1N2)OCO3 (stereo not shown) [Example 35] | 100% | – | 100% | –
CCOc1cccc(C2C3=C(COC3=O)Nc3cc4c(cc32)OCO4)c1 (stereo not shown) [Example 111] | 100% | – | – | –
COc1cc(C2C3=C(COC3=O)Nc3cc4c(cc32)OCO4)cc(OC)c1OC (stereo not shown) [Example 61] | – | – | 100% | –
O=C1OCC2=C1C(c1cccc(F)c1)c1cc3c(cc1N2)OCO3 (stereo not shown) [Example 20] | – | 96% | 83% | –
COc1cc(OC)cc(C2C3=C(COC3=O)Nc3ccc(OC)cc32)c1 (stereo not shown) [Example 162] | – | 100% | – | –
Cc1cccc(C2C3=C(COC3=O)Nc3cc4c(cc32)OCO4)c1 (stereo not shown) [Example 19] | 100% | – | – | –
COc1cc(C2C3=C(COC3=O)Nc3cc4c(cc32)OCO4)cc(O)c1OC (stereo not shown) [Example 130] | – | – | 100% | –
O=C1OCC2=C1C(c1cc(Cl)cc(Cl)c1)c1cc3c(cc1N2)OCO3 (stereo not shown) [Example 12] | – | 100% | 100% | –
Cc1cc(C)cc(C2C3=C(COC3=O)Nc3cc4c(cc32)OCO4)c1 (stereo not shown) [Example 23] | 100% | 98% | – | –
O=C1OCC2=C1C(c1cc(C(F)(F)F)cc(Cl)c1F)c1cc3c(cc1N2)OCO3 (stereo not shown) [Example 113] | – | 95% | 100% | –
COc1cc(OC)cc(C2C3=C(COC3=O)Nc3cc4c(cc32)OCCO4)c1 (stereo not shown) [Example 74] | 100% | – | – | –
COc1cc(OC)cc(C2C3=C(COC3=O)Nc3ccc(OC)cc32)c1 (stereo not shown) [Example 86] | 100% | – | 100% | –
COc1cc(C2C3=C(COC3=O)Nc3cc4c(cc32)OC(F)(F)O4)cc(OC)c1OC (stereo not shown) [Example 70] | – | – | 100% | –
